# In patent US8859628B2, “Method for preventing, treating and diagnosing disorders of protein aggregation” (priority 2003, dated 2014):
# “Also recorded” adds a separate entry of the source.
# Legend:
# Format in all cases: in vivo, mouse
# TgCRND8 mice [1] = assay: Morris Water Maze, spatial reference memory version, five-day trial paradigm (prevention study); conditions: 6 months of age
# Experimental: Age and sex-matched cohorts of TgCRND8 mice and non-transgenic littermates (n=35 in each cohort) were either untreated, or were given a compound of the present invention as indicated below at 30 mg/day/mouse beginning at age of about 6 weeks. The mice were followed for outcome measures cognitive function, brain Aβ levels, brain pathology, and survival at 4 months and 6 months of age.
# Two cohorts entered the study at 6 weeks of age and outcomes were analyzed at 4- and 6-months of age. The body weight, coat characteristics and in cage behavior was monitored. All experiments were performed according to the Canadian Council on Animal Care guidelines.
# Behavioral tests—After non-spatial pre-training, mice underwent place discrimination training for 5 days with 4 trials per day. Behavioral data was analyzed using a mixed model of factorial analysis of variance (ANOVA) with drug or genotype and training sessions as repeated measure factors.
# The cognitive function of TgCRND8 mice was assessed using the spatial reference memory version of the Morris Water Maze using a five-day trial paradigm (FIGS. 1C-1H). […] The improved performance was also not due to nutritional or caloric effects because body weight, activity, and coat condition were not different between treated and untreated cohorts. […] Gender effects were not significant between any treatment group (p=0.85).
# wild type mice = assay: Control experiment: survival and general condition of treated wild type mice
# TgCRND8 mice [2] = assay: Plasma Aβ levels
# Experimental: (§1) Plasma and Cerebral Aβ Content—Hemi-brain samples were homogenized in a buffered sucrose solution, followed by either 0.4% diethylamine/100 mM NaCl for soluble Aβ levels or cold formic acid for the isolation of total Aβ. After neutralization the samples were diluted and analyzed for Aβ40 and Aβ42 using commercially available kits (BIOSOURCE International). Each hemisphere was analyzed in triplicate with the mean±SEM reported. Western blot analyses were performed on all fractions using urea gels for Aβ species analyses. Aβ was detected using 6E10 (BIOSOURCE International) and Enhanced Chemiluminenscence (Amersham).
# as §1, with “reported.” for “reported. Western blot analyses were performed on all fractions using urea gels for Aβ species analyses. Aβ was detected using 6E10 (BIOSOURCE International) and Enhanced Chemiluminenscence (Amersham).”
compound,measurement,setting,value
"O[C@H]1[C@H](O)[C@@H](O)[C@H](O)[C@@H](O)[C@@H]1O [Scyllo-Inositol, scyllo-inositol]","cognitive function, treated TgCRND8 mice vs non-Tg littermates (words)",TgCRND8 mice [1],indistinguishable from non-Tg littermates on all days; also recorded: approached that of non-Tg littermates
same,"cognitive function, treated vs untreated TgCRND8 mice (words)",TgCRND8 mice [1],performed significantly better than untreated TgCRND8 mice
same,"survival, weight, fur condition, cage behavior",wild type mice,"had no effect either on survival or on other parameters such as weight, fur condition or cage behavior"
same,Plasma Aβ Levels,TgCRND8 mice [2]; 1 month treatment,1980 ± 146 pg/mL
same,effect on plasma Aβ levels in comparison to untreated (words),TgCRND8 mice [2]; 1 month treatment from 5 months of age,"Neither myo-inositol, epi-inositol nor scyllo-inositol treatment had any effect on plasma Aβ levels"
same,Plasma Aβ Levels Aβ40,TgCRND8 mice [2]; 2 month treatment,4507 ± 207 pg/mL
same,Plasma Aβ Levels Aβ42,TgCRND8 mice [2]; 2 month treatment,3035 ± 236 pg/mL
same,Plasma Aβ Levels,TgCRND8 mice [2]; 4 month prevention,952 ± 49 pg/mL
same,Plasma Aβ Levels,TgCRND8 mice [2]; 6 month prevention,905 ± 55 pg/mL
same,effect on plasma Aβ levels in comparison to untreated (words),"TgCRND8 mice [2]; prevention, 4- and 6-months of age",Neither epi-inositol nor scyllo-inositol treatment had any effect on plasma Aβ levels
